pIC50, pKi: −log10 of the molar value.
Columns and labels:
[1] = target: T1, purified class A, C and D enzymes (UniProt P0AD64, L31Q/G234S/E235K, species not given); assay type: biochemical; details: read-out: Ki (SHV-12, NCF); purified SHV-12; nitrocefin reporter substrate
T1 construct: Ki (SHV-12, NCF); other: purified SHV-12; nitrocefin reporter substrate
T1 sequence (P0AD64 1-286 L31Q/G234S/E235K): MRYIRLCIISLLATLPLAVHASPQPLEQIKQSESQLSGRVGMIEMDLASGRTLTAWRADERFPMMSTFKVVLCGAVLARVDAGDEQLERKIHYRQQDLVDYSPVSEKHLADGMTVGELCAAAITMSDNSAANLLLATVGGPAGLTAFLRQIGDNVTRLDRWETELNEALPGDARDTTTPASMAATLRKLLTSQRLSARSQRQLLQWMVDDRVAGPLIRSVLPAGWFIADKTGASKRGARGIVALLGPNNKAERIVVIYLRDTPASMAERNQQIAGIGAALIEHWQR

[2] = target: T2, purified class A, C and D enzymes (UniProt Q6XEC0); assay type: biochemical; details: read-out: Ki (OXA-48, NCF); purified OXA-48; nitrocefin reporter substrate
T2 construct: rows headed: Ki (OXA-48, NCF); other: purified OXA-48; nitrocefin reporter substrate

[3] = target: purified class A, C and D enzymes (Enterobacter cloacae, UniProt P05364); assay type: biochemical; details: purified P99/AmpC of ECL; nitrocefin reporter substrate
[4] = target: purified class A, C and D enzymes (Escherichia coli, UniProt Q9L5C7); assay type: biochemical; details: purified CTX-M-14; nitrocefin reporter substrate
[5] = target: T3, purified class A, C and D enzymes (UniProt Q9F663); assay type: biochemical; details: read-out: Ki (KPC-2, NCF); purified KPC-2; nitrocefin reporter substrate
T3 construct: rows headed: Ki (KPC-2, NCF); other: purified KPC-2; nitrocefin reporter substrate

NDM-1 [6] = target: T4, NDM-1 (Klebsiella pneumoniae, UniProt C7C422); assay: Inhibition of purified class B carbapenemase NDM-1 (Ki, imipenem substrate); assay type: biochemical; details: NDM-1, substrate imipenem; read-out: Ki NDM-1, Imipenem
VIM-1 = target: T5, VIM-1 (Pseudomonas aeruginosa, UniProt A0A0F7KYQ8); assay: biochemical; details: cleavage of nitrocefin (200 uM) by VIM-1 supernatant
T5 construct: made in house; host or cells: ECM6711 strain carrying pUCP24-VIM-1 plasmid; culture supernatant used unpurified

NDM-1 [7] = target: T4, NDM-1; assay: biochemical; details: cleavage of imipenem (100 uM) by NDM-1; read-out: Ki, Imipenem

Sequence of purified class A, C and D enzymes (Escherichia coli, UniProt Q9L5C7) (Q9L5C7 entry or part of it): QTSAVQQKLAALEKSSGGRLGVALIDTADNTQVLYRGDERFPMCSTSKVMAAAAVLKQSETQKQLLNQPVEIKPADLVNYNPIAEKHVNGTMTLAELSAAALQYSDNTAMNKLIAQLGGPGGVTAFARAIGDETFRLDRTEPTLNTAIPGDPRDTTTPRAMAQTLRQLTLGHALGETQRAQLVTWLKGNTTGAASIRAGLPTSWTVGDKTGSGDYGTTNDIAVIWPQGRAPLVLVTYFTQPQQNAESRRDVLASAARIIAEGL
Sequence of purified class A, C and D enzymes (Enterobacter cloacae, UniProt P05364) (P05364 21-381): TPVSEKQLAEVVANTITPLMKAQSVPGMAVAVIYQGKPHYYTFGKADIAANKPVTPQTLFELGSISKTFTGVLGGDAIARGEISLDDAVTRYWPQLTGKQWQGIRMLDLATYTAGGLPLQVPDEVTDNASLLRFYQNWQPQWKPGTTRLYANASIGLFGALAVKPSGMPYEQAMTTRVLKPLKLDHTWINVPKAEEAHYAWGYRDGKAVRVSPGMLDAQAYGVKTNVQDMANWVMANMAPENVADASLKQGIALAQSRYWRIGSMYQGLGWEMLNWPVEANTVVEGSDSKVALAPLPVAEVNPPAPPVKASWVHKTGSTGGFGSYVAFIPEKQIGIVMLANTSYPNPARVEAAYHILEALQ
T4 sequence (C7C422 29-270, looked up, species assumed): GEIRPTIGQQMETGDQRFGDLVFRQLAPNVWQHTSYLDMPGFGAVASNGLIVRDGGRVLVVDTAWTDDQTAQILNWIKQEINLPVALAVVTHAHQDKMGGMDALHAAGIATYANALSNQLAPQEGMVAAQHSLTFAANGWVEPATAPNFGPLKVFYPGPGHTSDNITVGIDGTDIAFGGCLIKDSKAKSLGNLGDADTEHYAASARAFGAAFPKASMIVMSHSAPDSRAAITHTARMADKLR

Row | SMILES | pKi [1] | pKi [2] | Ki (P99/AmpC of ECL, NCF) [3] | Ki (CTX-M-14, NCF) [4] | pKi [5] | pKi (NDM-1 [6]) | pIC50 (VIM-1) | pKi (NDM-1 [7])
1 | CCOc1ccc2c(c1C(=O)O)OB(O)[C@@H](Sc1nnc(N)s1)C2 [Compound 83, (3R)-3-[(5-amino-1,3,4-thiadiazol-2-yl)sulfanyl]-7-ethoxy-2-hydroxy-3,4-dihydro-1,2-benzoxaborinine-8-carboxylic acid] | > 7.00 | > 7.00 | Y (0.1 μM to 1 μM) | X (Less than 0.1 μM) | 6.00 to 7.00 | > 8.00 | > 6.00 | > 8.00
2 | Nc1nnc(S[C@H]2Cc3ccc(OC(F)F)c(C(=O)O)c3OB2O)s1 [Compound 84, (3R)-3-[(5-amino-1,3,4-thiadiazol-2-yl)sulfanyl]-7-(difluoromethoxy)-2-hydroxy-3,4-dihydro-1,2-benzoxaborinine-8-carboxylic acid] | > 7.00 | > 7.00 | Y (0.1 μM to 1 μM) | X (Less than 0.1 μM) | 6.00 to 7.00 | 7.00 to 8.00 | > 6.00 | 7.00 to 8.00
3 | CC(C)Oc1ccc2c(c1C(=O)O)OB(O)[C@@H](Sc1nncs1)C2 [Compound 85, (3R)-2-hydroxy-7-isopropoxy-3-(1,3,4-thiadiazol-2-ylsulfanyl)-3,4-dihydro-1,2-benzoxaborinine-8-carboxylic acid] | > 7.00 | > 7.00 | Y (0.1 μM to 1 μM) | X (Less than 0.1 μM) | 6.00 to 7.00 | < 7.00 | > 6.00 | < 7.00
4 | N#CCOc1ccc2c(c1C(=O)O)OB(O)[C@@H](Sc1nncs1)C2 [Compound 86, (3R)-7-(cyanomethoxy)-2-hydroxy-3-(1,3,4-thiadiazol-2-ylsulfanyl)-3,4-dihydro-1,2-benzoxaborinine-8-carboxylic acid] | > 7.00 | > 7.00 | Z (Greater than 1 μM) | X (Less than 0.1 μM) | 6.00 to 7.00 | < 7.00 | > 6.00 | < 7.00
5 | O=C(O)c1c(OCCF)ccc2c1OB(O)[C@@H](Sc1nncs1)C2 [Compound 87, (3R)-7-(2-fluoroethoxy)-2-hydroxy-3-(1,3,4-thiadiazol-2-ylsulfanyl)-3,4-dihydro-1,2-benzoxaborinine-8-carboxylic acid] | > 7.00 | > 7.00 | Y (0.1 μM to 1 μM) | X (Less than 0.1 μM) | 6.00 to 7.00 | 7.00 to 8.00 | > 6.00 | < 7.00
6 | CC(C)COc1ccc2c(c1C(=O)O)OB(O)[C@@H](Sc1nncs1)C2 [Compound 88, (3R)-2-hydroxy-7-isobutoxy-3-(1,3,4-thiadiazol-2-ylsulfanyl)-3,4-dihydro-1,2-benzoxaborinine-8-carboxylic acid] | > 7.00 | > 7.00 | Y (0.1 μM to 1 μM) | X (Less than 0.1 μM) | 6.00 to 7.00 | 7.00 to 8.00 | > 6.00 | 7.00 to 8.00
7 | COCCOc1ccc2c(c1C(=O)O)OB(O)[C@@H](Sc1nncs1)C2 [Compound 89, (3R)-2-hydroxy-7-(2-methoxyethoxy)-3-(1,3,4-thiadiazol-2-ylsulfanyl)-3,4-dihydro-1,2-benzoxaborinine-8-carboxylic acid] | > 7.00 | > 7.00 | Z (Greater than 1 μM) | X (Less than 0.1 μM) | 6.00 to 7.00 | 7.00 to 8.00 | > 6.00 | 7.00 to 8.00
8 | Nc1nnc(S[C@H]2Cc3ccc(OCC(F)F)c(C(=O)O)c3OB2O)s1 [Compound 90, (3R)-3-[(5-amino-1,3,4-thiadiazol-2-yl)sulfanyl]-7-(2,2-difluoroethoxy)-2-hydroxy-3,4-dihydro-1,2-benzoxaborinine-8-carboxylic acid] | > 7.00 | > 7.00 | Z (Greater than 1 μM) | X (Less than 0.1 μM) | > 7.00 | 7.00 to 8.00 | > 6.00 | 7.00 to 8.00
9 | O=C(O)c1c(OCC(F)F)ccc2c1OB(O)[C@@H](Sc1nncs1)C2 [Compound 91, (3R)-7-(2,2-difluoroethoxy)-2-hydroxy-3-(1,3,4-thiadiazol-2-ylsulfanyl)-3,4-dihydro-1,2-benzoxaborinine-8-carboxylic acid] | > 7.00 | > 7.00 | Y (0.1 μM to 1 μM) | X (Less than 0.1 μM) | 6.00 to 7.00 | 7.00 to 8.00 | > 6.00 | 7.00 to 8.00
10 | COc1ccc2c(c1C(=O)O)OB(O)[C@@H](Sc1nnc(NC3CNC3)s1)C2 [Compound 96, (3R)-3-[[5-(azetidin-3-ylamino)-1,3,4-thiadiazol-2-yl]sulfanyl]-2-hydroxy-7-methoxy-3,4-dihydro-1,2-benzoxaborinine-8-carboxylic acid] | > 7.00 | > 7.00 | Y (0.1 μM to 1 μM) | X (Less than 0.1 μM) | 6.00 to 7.00 | > 8.00 | > 6.00 | > 8.00
11 | COc1ccc2c(c1C(=O)O)OB(O)[C@@H](Sc1nnc(NCCN3CCNCC3)s1)C2 [Compound 98, (3R)-2-hydroxy-7-methoxy-3-[[5-(2-piperazin-1-ylethylamino)-1,3,4-thiadiazol-2-yl]sulfanyl]-3,4-dihydro-1,2-benzoxaborinine-8-carboxylic acid] | > 7.00 | > 7.00 | Y (0.1 μM to 1 μM) | X (Less than 0.1 μM) | 6.00 to 7.00 | 7.00 to 8.00 | > 6.00 | 7.00 to 8.00
12 | O=C(O)c1cccc2c1OB(O)[C@@H](Sc1nnc(NC3CNC3)s1)C2 [Compound 99, (3R)-3-[[5-(azetidin-3-ylamino)-1,3,4-thiadiazol-2-yl]sulfanyl]-2-hydroxy-3,4-dihydro-1,2-benzoxaborinine-8-carboxylic acid] | > 7.00 | > 7.00 | X (Less than 0.1 μM) | X (Less than 0.1 μM) | 6.00 to 7.00 | > 8.00 | > 6.00 | > 8.00
13 | COc1ccc2c(c1C(=O)O)OB(O)[C@@H](Sc1nnc(NCCCN)s1)C2 [Compound 100, (3R)-3-[[5-(3-aminopropylamino)-1,3,4-thiadiazol-2-yl]sulfanyl]-2-hydroxy-7-methoxy-3,4-dihydro-1,2-benzoxaborinine-8-carboxylic acid] | > 7.00 | > 7.00 | X (Less than 0.1 μM) | X (Less than 0.1 μM) | 6.00 to 7.00 | > 8.00 | > 6.00 | > 8.00
14 | COc1ccc2c(c1C(=O)O)OB(O)[C@@H](Sc1nnc(N(CCN)CCN)s1)C2 [Compound 101, (3R)-3-[[5-[bis(2-aminoethyl)amino]-1,3,4-thiadiazol-2-yl]sulfanyl]-2-hydroxy-7-methoxy-3,4-dihydro-1,2-benzoxaborinine-8-carboxylic acid] | > 7.00 | > 7.00 | Z (Greater than 1 μM) | X (Less than 0.1 μM) | 6.00 to 7.00 | > 8.00 | > 6.00 | > 8.00
